# Assay results reported in ChEMBL document CHEMBL1143031, “First synthesis of 7alpha- and 7beta-amino-DHEA, dehydroepiandrosterone (DHEA) analogues and preliminary evaluation of their cytotoxicity on Leydig cells and TM4 Sertoli cells” (2007).
# Assays:
# Assay type in all cases: functional
# [1] = Effect on apoptosis in Sprague-Dawley rat Leydig cells assessed as cell viability at 70 uM after 24 hrs by DAPI test; settings: read-out: Activity
# [2] = Effect on apoptosis in Sprague-Dawley rat Leydig cells assessed as cell viability at 35 uM after 24 hrs by DAPI test; settings: read-out: Activity
# [3] = Effect on apoptosis in BALB/c mouse sertoli TM4 cells assessed as cell viability at 35 uM after 24 hrs by DAPI test; settings: TM4, 24 h, read-out: Activity
# [4] = Effect on apoptosis in BALB/c mouse sertoli TM4 cells assessed as cell viability at 70 uM after 24 hrs by DAPI test; settings: TM4, 24 h, read-out: Activity
# [5] = Effect on cell necrosis in Sprague-Dawley rat Leydig cells assessed as cell viability at 35 uM after 24 hrs by trypan blue test; settings: read-out: Activity
# [6] = Effect on cell necrosis in Sprague-Dawley rat Leydig cells assessed as cell viability at 70 uM after 24 hrs by trypan blue test; settings: read-out: Activity
# [7] = Effect on necrosis in BALB/c mouse sertoli TM4 cells assessed as cell viability at 35 uM after 24 hrs by Trypan blue test; settings: TM4, 24 h, read-out: Activity
# [8] = Effect on necrosis in BALB/c mouse sertoli TM4 cells assessed as cell viability at 70 uM after 24 hrs by Trypan blue test; settings: TM4, 24 h, read-out: Activity
SMILES,viability at 70 µM [1],viability at 35 µM [2],viability at 35 µM [3],viability at 70 µM [4],viability at 35 µM [5],viability at 70 µM [6],viability at 35 µM [7],viability at 70 µM [8]
C[C@]12CC[C@H](O)CC1=C[C@H](N)[C@@H]1[C@@H]2CC[C@]2(C)C(=O)CC[C@@H]12,89%,92%,82%,79%,93%,85%,64%,0%
C[C@]12CC[C@H](O)CC1=CC[C@@H]1[C@@H]2CC[C@]2(C)C(=O)CC[C@@H]12 [PRASTERONE],95%,95%,90%,90%,86%,76%,92%,92%
